From ChEMBL document CHEMBL1139555, “Discovery of potent and selective phenylalanine based dipeptidyl peptidase IV inhibitors” (Bioorg Med Chem Lett, 2005) come the findings set out here.

Targets include Dipeptidyl peptidase 9 (Homo sapiens, UniProt Q86TI2); Dipeptidyl peptidase 2 (Homo sapiens, UniProt Q9UHL4); Dipeptidyl peptidase 4 (Homo sapiens, UniProt P27487); Dipeptidyl peptidase 8 (Homo sapiens, UniProt Q6V1X1).

Dipeptidyl peptidase 4, sequence (P27487 whole entry): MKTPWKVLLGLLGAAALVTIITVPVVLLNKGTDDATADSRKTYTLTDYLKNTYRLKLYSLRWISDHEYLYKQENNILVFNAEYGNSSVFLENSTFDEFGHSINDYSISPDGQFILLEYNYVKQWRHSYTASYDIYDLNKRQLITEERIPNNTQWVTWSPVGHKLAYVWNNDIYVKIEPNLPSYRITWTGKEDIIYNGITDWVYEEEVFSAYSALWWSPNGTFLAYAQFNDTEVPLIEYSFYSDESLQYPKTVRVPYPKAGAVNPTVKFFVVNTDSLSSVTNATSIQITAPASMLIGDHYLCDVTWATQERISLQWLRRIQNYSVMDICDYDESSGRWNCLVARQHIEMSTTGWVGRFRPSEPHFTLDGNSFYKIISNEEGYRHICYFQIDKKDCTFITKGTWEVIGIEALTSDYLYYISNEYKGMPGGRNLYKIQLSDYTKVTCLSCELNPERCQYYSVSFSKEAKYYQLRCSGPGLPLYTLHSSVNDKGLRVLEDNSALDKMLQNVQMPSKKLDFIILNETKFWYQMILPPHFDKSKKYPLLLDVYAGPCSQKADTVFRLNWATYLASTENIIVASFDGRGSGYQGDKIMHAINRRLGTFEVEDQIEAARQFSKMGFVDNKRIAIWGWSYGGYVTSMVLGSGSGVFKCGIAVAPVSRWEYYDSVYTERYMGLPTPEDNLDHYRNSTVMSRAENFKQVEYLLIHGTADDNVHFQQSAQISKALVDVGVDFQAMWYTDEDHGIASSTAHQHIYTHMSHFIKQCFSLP
Dipeptidyl peptidase 8, sequence (Q6V1X1 whole entry): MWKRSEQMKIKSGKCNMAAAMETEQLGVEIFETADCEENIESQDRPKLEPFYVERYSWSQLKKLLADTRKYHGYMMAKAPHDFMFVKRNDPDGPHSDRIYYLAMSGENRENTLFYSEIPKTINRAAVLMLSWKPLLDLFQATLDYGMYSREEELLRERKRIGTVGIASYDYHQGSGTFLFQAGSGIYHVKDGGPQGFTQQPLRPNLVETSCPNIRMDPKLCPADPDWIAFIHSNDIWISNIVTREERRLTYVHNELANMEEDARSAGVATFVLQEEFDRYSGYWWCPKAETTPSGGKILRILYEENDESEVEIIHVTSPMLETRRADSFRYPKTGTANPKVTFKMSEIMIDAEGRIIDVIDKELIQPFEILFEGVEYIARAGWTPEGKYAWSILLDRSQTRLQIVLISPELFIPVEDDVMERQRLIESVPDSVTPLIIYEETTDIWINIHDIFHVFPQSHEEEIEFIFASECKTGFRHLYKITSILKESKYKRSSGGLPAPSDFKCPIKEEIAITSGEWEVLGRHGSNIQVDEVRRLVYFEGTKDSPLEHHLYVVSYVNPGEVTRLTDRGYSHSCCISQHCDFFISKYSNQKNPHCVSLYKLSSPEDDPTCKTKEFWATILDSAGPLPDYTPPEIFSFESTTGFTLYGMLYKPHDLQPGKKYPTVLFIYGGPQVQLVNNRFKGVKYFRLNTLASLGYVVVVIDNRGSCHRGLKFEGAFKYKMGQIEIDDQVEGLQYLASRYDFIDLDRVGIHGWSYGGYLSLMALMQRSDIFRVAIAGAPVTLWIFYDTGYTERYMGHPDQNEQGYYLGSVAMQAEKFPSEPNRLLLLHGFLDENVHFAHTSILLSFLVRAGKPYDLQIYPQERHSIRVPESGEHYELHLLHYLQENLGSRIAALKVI
Dipeptidyl peptidase 9, sequence (Q86TI2 whole entry): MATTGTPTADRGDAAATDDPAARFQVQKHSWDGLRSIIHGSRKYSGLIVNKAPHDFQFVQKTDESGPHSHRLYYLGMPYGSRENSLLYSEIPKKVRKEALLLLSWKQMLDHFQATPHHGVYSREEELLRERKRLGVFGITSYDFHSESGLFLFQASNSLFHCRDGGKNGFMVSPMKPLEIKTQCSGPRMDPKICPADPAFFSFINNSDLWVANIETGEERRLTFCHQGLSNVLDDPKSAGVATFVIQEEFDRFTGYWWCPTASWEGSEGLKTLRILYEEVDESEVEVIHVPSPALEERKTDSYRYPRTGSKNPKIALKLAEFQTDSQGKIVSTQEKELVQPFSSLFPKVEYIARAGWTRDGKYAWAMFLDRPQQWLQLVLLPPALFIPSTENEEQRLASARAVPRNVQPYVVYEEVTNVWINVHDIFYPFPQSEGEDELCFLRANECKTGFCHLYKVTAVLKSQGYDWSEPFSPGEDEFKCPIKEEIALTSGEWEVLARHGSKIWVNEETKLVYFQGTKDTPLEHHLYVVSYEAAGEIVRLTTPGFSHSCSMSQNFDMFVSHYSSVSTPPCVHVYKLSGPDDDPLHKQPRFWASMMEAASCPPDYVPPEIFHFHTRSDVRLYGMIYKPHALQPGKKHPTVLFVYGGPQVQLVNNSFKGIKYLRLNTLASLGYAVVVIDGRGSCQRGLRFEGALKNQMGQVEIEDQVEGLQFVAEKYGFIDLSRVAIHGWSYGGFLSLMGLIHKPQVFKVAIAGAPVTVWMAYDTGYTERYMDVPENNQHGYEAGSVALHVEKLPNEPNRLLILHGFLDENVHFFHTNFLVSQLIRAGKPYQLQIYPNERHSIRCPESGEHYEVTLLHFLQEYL

One may read the IC50 as the concentration needed to halve the response being measured. Higher therefore signals weaker potency in that assay. Take `C[C@@H](c1ccc(Cl)cc1)[C@H](N)C(=O)N1CC[C@H](F)C1`: the IC50 was above 100 µM at Dipeptidyl peptidase 9, 5.9 µM against Dipeptidyl peptidase 2, 0.17 µM at Dipeptidyl peptidase 4 and above 100 µM on Dipeptidyl peptidase 8.

Turning to `C[C@@H](c1ccc(Br)cc1)[C@H](N)C(=O)N1CC[C@H](F)C1`, the half-maximal inhibitory concentration (IC50) at Dipeptidyl peptidase 9 is above 100 µM; against Dipeptidyl peptidase 2, 3.6 µM; on Dipeptidyl peptidase 4, 0.25 µM; against Dipeptidyl peptidase 8 it was above 100 µM.

For the compound `Cc1ccc(-c2ccc([C@H](C)[C@H](N)C(=O)N3CC[C@H](F)C3)cc2)cc1`, the IC50 at Dipeptidyl peptidase 9 was above 100 µM; against Dipeptidyl peptidase 2, 1.1 µM; at Dipeptidyl peptidase 4 it was 0.39 µM.

On to `C[C@@H](c1ccc(F)cc1C(F)(F)F)[C@H](N)C(=O)N1CC[C@H](F)C1`, for which the IC50 is above 100 µM against Dipeptidyl peptidase 9, above 100 µM against Dipeptidyl peptidase 2, 54 µM against Dipeptidyl peptidase 4 and above 100 µM at Dipeptidyl peptidase 8.

In the case of `C[C@@H](c1ccc(-c2ccccc2Cl)cc1)[C@H](N)C(=O)N1CC[C@H](F)C1`, the IC50 against Dipeptidyl peptidase 9 is above 100 µM; against Dipeptidyl peptidase 2 it was 0.38 µM; against Dipeptidyl peptidase 4 it was 0.086 µM; against Dipeptidyl peptidase 8, above 100 µM.

Regarding `C[C@@H](c1ccc(-c2cc(F)cc(F)c2)cc1)[C@H](N)C(=O)N1CC[C@H](F)C1`, the IC50 against Dipeptidyl peptidase 2 was determined as 2 µM; at Dipeptidyl peptidase 4 it was 0.24 µM.

Regarding `C[C@@H](c1cccc(F)c1)[C@H](N)C(=O)N1CC[C@H](F)C1`, the IC50 is above 100 µM at Dipeptidyl peptidase 9, 14 µM on Dipeptidyl peptidase 2, 3.7 µM against Dipeptidyl peptidase 4 and above 100 µM at Dipeptidyl peptidase 8.

For `C[C@@H](c1ccc(-c2ccccn2)cc1)[C@H](N)C(=O)N1CC[C@H](F)C1`, the IC50 is above 100 µM against Dipeptidyl peptidase 9, 4.6 µM on Dipeptidyl peptidase 2, 0.24 µM on Dipeptidyl peptidase 4 and above 100 µM at Dipeptidyl peptidase 8.

On to `C[C@@H](c1ccc(-c2ccccc2)cc1)[C@H](N)C(=O)N1CC[C@H](F)C1`, for which the values for the 50% inhibitory concentration (IC50) on Dipeptidyl peptidase 9, at Dipeptidyl peptidase 2 and against Dipeptidyl peptidase 4 were above 100 µM, 3 µM and 0.12 µM, respectively.

`C[C@@H](c1ccc(-c2cccc(NS(=O)(=O)C(F)(F)F)c2)cc1)[C@H](N)C(=O)N1CC[C@H](F)C1`: the figures for the IC50 against Dipeptidyl peptidase 2, at Dipeptidyl peptidase 4 and against Dipeptidyl peptidase 8 were 1.3 µM, 0.027 µM and above 100 µM, respectively.

Consider `CSc1ccc([C@H](C)[C@H](N)C(=O)N2CC[C@H](F)C2)cc1`, for which the half-maximal inhibitory concentration (IC50) against Dipeptidyl peptidase 2 came to 5.9 µM; at Dipeptidyl peptidase 4 it was 0.36 µM.

As to `C[C@@H](c1ccc(-c2nccs2)cc1)[C@H](N)C(=O)N1CC[C@H](F)C1`, the IC50 at Dipeptidyl peptidase 9 was above 100 µM; at Dipeptidyl peptidase 2, 0.72 µM; on Dipeptidyl peptidase 4, 1.5 µM; at Dipeptidyl peptidase 8 it was above 100 µM.

`C[C@@H](c1ccc(-c2cccc(C(N)=O)c2)cc1)[C@H](N)C(=O)N1CC[C@H](F)C1` displayed an IC50 at Dipeptidyl peptidase 2 of 0.82 µM.

Regarding `CCOC(=O)c1cccc(-c2ccc([C@H](C)[C@H](N)C(=O)N3CC[C@H](F)C3)cc2)c1`, the IC50 against Dipeptidyl peptidase 9 was above 100 µM; at Dipeptidyl peptidase 2, 0.49 µM; against Dipeptidyl peptidase 4 it was 0.075 µM; on Dipeptidyl peptidase 8 it was above 100 µM.

For `C[C@@H](c1ccc(-c2cncnc2)cc1)[C@H](N)C(=O)N1CC[C@H](F)C1`, the IC50 against Dipeptidyl peptidase 9 was above 100 µM; against Dipeptidyl peptidase 2, 10 µM; at Dipeptidyl peptidase 4 it was 0.58 µM.

Consider `C[C@@H](c1cccc(Cl)c1)[C@H](N)C(=O)N1CC[C@H](F)C1`, for which the IC50 against Dipeptidyl peptidase 9 was above 100 µM; against Dipeptidyl peptidase 2 it was 5.7 µM; at Dipeptidyl peptidase 4 it was 1.1 µM; on Dipeptidyl peptidase 8 it was above 100 µM.

In the case of `C[C@@H](c1ccc(-c2ccc(C(F)(F)F)cc2)cc1)[C@H](N)C(=O)N1CC[C@H](F)C1`, the 50% inhibitory concentration (IC50) is above 100 µM against Dipeptidyl peptidase 9, 0.67 µM on Dipeptidyl peptidase 2 and 0.51 µM at Dipeptidyl peptidase 4.

For `C[C@@H](c1ccccc1)[C@H](N)C(=O)N1CCSC1`, the results for the IC50 against Dipeptidyl peptidase 9, against Dipeptidyl peptidase 4 and on Dipeptidyl peptidase 8 were above 100 µM, 0.968 µM and above 100 µM, respectively.

For `C[C@@H](c1ccc(C(F)(F)F)cc1)[C@H](N)C(=O)N1CC[C@H](F)C1`, the IC50 at Dipeptidyl peptidase 9 was above 100 µM; on Dipeptidyl peptidase 2, 5.2 µM; against Dipeptidyl peptidase 4 it was 0.6 µM; on Dipeptidyl peptidase 8, above 100 µM.

With `C[C@@H](c1ccc(-c2ccc(F)c(F)c2)cc1)[C@H](N)C(=O)N1CC[C@H](F)C1`, the half-maximal inhibitory concentration (IC50) came out at 2 µM against Dipeptidyl peptidase 2 and 0.06 µM on Dipeptidyl peptidase 4.

In the case of `C[C@@H](c1ccc(-c2cccnc2)cc1)[C@H](N)C(=O)N1CC[C@H](F)C1`, the half-maximal inhibitory concentration (IC50) is above 100 µM against Dipeptidyl peptidase 9, 4.8 µM on Dipeptidyl peptidase 2, 0.11 µM at Dipeptidyl peptidase 4 and above 100 µM against Dipeptidyl peptidase 8.

For the compound `C[C@@H](c1cc(F)cc(F)c1)[C@H](N)C(=O)N1CC[C@H](F)C1`, the IC50 on Dipeptidyl peptidase 9 was above 100 µM; at Dipeptidyl peptidase 2, 7.8 µM; at Dipeptidyl peptidase 4 it was 3.7 µM; at Dipeptidyl peptidase 8, above 100 µM.

Regarding `COc1ccc(-c2ccc([C@H](C)[C@H](N)C(=O)N3CC[C@H](F)C3)cc2)cc1`, the IC50 is above 100 µM at Dipeptidyl peptidase 9, 0.33 µM on Dipeptidyl peptidase 2 and 0.13 µM at Dipeptidyl peptidase 4.

In the case of `C[C@@H](c1ccc(-c2cccc(-n3cnnn3)c2)cc1)[C@H](N)C(=O)N1CC[C@H](F)C1`, the IC50 is above 100 µM against Dipeptidyl peptidase 9, 0.87 µM on Dipeptidyl peptidase 2 and 0.14 µM against Dipeptidyl peptidase 4.

With `C[C@@H](c1ccc(F)cc1Cl)[C@H](N)C(=O)N1CC[C@H](F)C1`, the IC50 was above 100 µM at Dipeptidyl peptidase 9, 46 µM against Dipeptidyl peptidase 2, 4.2 µM at Dipeptidyl peptidase 4 and above 100 µM on Dipeptidyl peptidase 8.

In the case of `C[C@@H](c1ccc(-c2cccc(-c3n[nH]c(O)n3)c2)cc1)[C@H](N)C(=O)N1CC[C@H](F)C1`, the IC50 against Dipeptidyl peptidase 2 was found to be 1.1 µM; at Dipeptidyl peptidase 4 it was 0.095 µM.

As to `C[C@@H](c1ccc(-c2cccc(NS(C)(=O)=O)c2)cc1)[C@H](N)C(=O)N1CC[C@H](F)C1`, the half-maximal inhibitory concentration (IC50) was above 100 µM against Dipeptidyl peptidase 9, 0.25 µM against Dipeptidyl peptidase 2, 0.15 µM against Dipeptidyl peptidase 4 and above 100 µM against Dipeptidyl peptidase 8.

On to `C[C@@H](c1ccc(-c2cc(F)ccc2F)cc1)[C@H](N)C(=O)N1CC[C@H](F)C1`, for which the results for the IC50 at Dipeptidyl peptidase 9, against Dipeptidyl peptidase 2 and against Dipeptidyl peptidase 8 were above 100 µM, 1.3 µM and above 100 µM, respectively.

Take `C[C@@H](c1ccc(N2CCCCC2)cc1)[C@H](N)C(=O)N1CC[C@H](F)C1`: the IC50 on Dipeptidyl peptidase 9 is above 100 µM; on Dipeptidyl peptidase 2, 28 µM; on Dipeptidyl peptidase 4, 7.9 µM; against Dipeptidyl peptidase 8, above 100 µM.

Consider `C[C@@H](c1ccccc1)[C@H](N)C(=O)N1CC[C@H](F)C1`, for which the concentration for half-maximal inhibition (IC50) is above 100 µM against Dipeptidyl peptidase 9, 59 µM on Dipeptidyl peptidase 2, 1.4 µM on Dipeptidyl peptidase 4 and above 100 µM at Dipeptidyl peptidase 8.

In the case of `C[C@@H](c1ccccc1F)[C@H](N)C(=O)N1CC[C@H](F)C1`, the IC50 against Dipeptidyl peptidase 9 is above 100 µM; against Dipeptidyl peptidase 2, 19 µM; at Dipeptidyl peptidase 4 it was 1.1 µM; at Dipeptidyl peptidase 8 it was above 100 µM.

Regarding `C[C@@H](c1ccc(-c2cccc(-c3c[nH]c(O)n3)c2)cc1)[C@H](N)C(=O)N1CC[C@H](F)C1`, the IC50 at Dipeptidyl peptidase 2 was found to be 0.83 µM; at Dipeptidyl peptidase 4, 0.11 µM.

For `C[C@@H](c1ccc(F)c(Cl)c1)[C@H](N)C(=O)N1CC[C@H](F)C1`, the IC50 amounted to 5.2 µM on Dipeptidyl peptidase 2 and 2.8 µM against Dipeptidyl peptidase 4.

`C[C@@H](c1ccc(F)cc1)[C@H](N)C(=O)N1CC[C@H](F)C1`: the half-maximal inhibitory concentration (IC50) was 23 µM on Dipeptidyl peptidase 2 and above 100 µM against Dipeptidyl peptidase 8.

On to `C[C@@H](c1ccc(-c2cccc(S(C)(=O)=O)c2)cc1)[C@H](N)C(=O)N1CC[C@H](F)C1`, for which the IC50 stood at 2.9 µM at Dipeptidyl peptidase 2 and 0.11 µM against Dipeptidyl peptidase 4.

On to `COc1ccccc1-c1ccc([C@H](C)[C@H](N)C(=O)N2CC[C@H](F)C2)cc1`, for which the IC50 on Dipeptidyl peptidase 9 was above 100 µM; at Dipeptidyl peptidase 2 it was 3.8 µM; at Dipeptidyl peptidase 4, 0.11 µM; at Dipeptidyl peptidase 8 it was above 100 µM.

Consider `C[C@@H](c1ccc(-c2ccccc2)c(F)c1)[C@H](N)C(=O)N1CC[C@H](F)C1`, for which the IC50 against Dipeptidyl peptidase 9 was above 100 µM; against Dipeptidyl peptidase 2, 48 µM; against Dipeptidyl peptidase 4, 2 µM; at Dipeptidyl peptidase 8, above 100 µM.

As for `C[C@@H](c1ccc(F)c(F)c1)[C@H](N)C(=O)N1CC[C@H](F)C1`, the IC50 was 11 µM at Dipeptidyl peptidase 2, 1.1 µM against Dipeptidyl peptidase 4 and above 100 µM on Dipeptidyl peptidase 8.

For the compound `COc1ccc([C@H](C)[C@H](N)C(=O)N2CC[C@H](F)C2)cc1`, the half-maximal inhibitory concentration (IC50) against Dipeptidyl peptidase 9 is above 100 µM; against Dipeptidyl peptidase 2 it was 14 µM; at Dipeptidyl peptidase 4, 0.77 µM; against Dipeptidyl peptidase 8 it was above 100 µM.

In the case of `C[C@@H](c1ccc(-c2cccc(-c3noc(C4CC4)n3)c2)cc1)[C@H](N)C(=O)N1CC[C@H](F)C1`, the figures for the IC50 against Dipeptidyl peptidase 9, on Dipeptidyl peptidase 2 and at Dipeptidyl peptidase 4 were above 100 µM, 0.096 µM and 0.14 µM, respectively.

Regarding `C[C@@H](c1ccc(S(C)(=O)=O)cc1)[C@H](N)C(=O)N1CC[C@H](F)C1`, the IC50 against Dipeptidyl peptidase 9 was above 100 µM; on Dipeptidyl peptidase 2, 36 µM; on Dipeptidyl peptidase 4, 3.6 µM; on Dipeptidyl peptidase 8, above 100 µM.

Turning to `C[C@@H](c1ccc(-c2ccccc2F)cc1)[C@H](N)C(=O)N1CC[C@H](F)C1`, the IC50 at Dipeptidyl peptidase 9 was above 100 µM; on Dipeptidyl peptidase 2, 1.1 µM; on Dipeptidyl peptidase 4, 0.1 µM; against Dipeptidyl peptidase 8, above 100 µM.

Take `C[C@@H](c1ccc(Cl)cc1F)[C@H](N)C(=O)N1CC[C@H](F)C1`: the concentration for half-maximal inhibition (IC50) against Dipeptidyl peptidase 9 is above 100 µM; on Dipeptidyl peptidase 2 it was 5.6 µM; against Dipeptidyl peptidase 4, 0.48 µM; against Dipeptidyl peptidase 8, above 100 µM.

As to `C[C@@H](c1ccc(-c2ccncc2)cc1)[C@H](N)C(=O)N1CC[C@H](F)C1`, the IC50 on Dipeptidyl peptidase 9 was above 100 µM; against Dipeptidyl peptidase 2 it was 3.1 µM; at Dipeptidyl peptidase 4, 0.11 µM; on Dipeptidyl peptidase 8 it was above 100 µM.

Consider `Cc1ccccc1-c1ccc([C@H](C)[C@H](N)C(=O)N2CC[C@H](F)C2)cc1`, for which the IC50 against Dipeptidyl peptidase 9 is above 100 µM; on Dipeptidyl peptidase 2, 2.5 µM; on Dipeptidyl peptidase 8, above 100 µM.

As for `C[C@@H](c1ccc(-c2ccccc2C(F)(F)F)cc1)[C@H](N)C(=O)N1CC[C@H](F)C1`, the IC50 was above 100 µM at Dipeptidyl peptidase 9, 2.5 µM on Dipeptidyl peptidase 2, 0.13 µM against Dipeptidyl peptidase 4 and above 100 µM against Dipeptidyl peptidase 8.

As to `C[C@@H](c1ccc(C(=O)[n+]2ccc[nH]2)cc1)[C@H](N)C(=O)N1CC[C@H](F)C1`, the IC50 at Dipeptidyl peptidase 9 was above 100 µM; against Dipeptidyl peptidase 2, 1.5 µM; at Dipeptidyl peptidase 4, 1.7 µM.
